Two molecules from publication PMC7144209, “Design, synthesis and anticancer activity of naphthoquinone derivatives” (Journal of Enzyme Inhibition and Medicinal Chemistry, 2020) can be followed below.

Structures are written as SMILES.

Assay [1] deals with SGC-7901, MGC-803, SMMC-7721, U-87 cell lines. In words: MTT anticancer activity, summary in words over the cell line panel. Format: cell-based. Conditions: MTT assay. How it is done:
(§1) MGC-803, SGC-7901, U87 and SMMC-7721 cells were plated in 96-well plate at 7000 per well. Cells were incubated with the different concentrations of the compounds for 48 h. Subsequently, MTT (0.5 mg/mL) were used to test the cell viability, then 150 μL DMSO was added to each well after cells were incubated for 4 h and the absorbance was measured at 492 nm.
Compounds 1–24 were detected for anticancer activities against SGC-7901, MGC-803, SMMC-7721, U-87 cell lines in vitro by the MTT assay, and ADM was used as the positive control. From Table 1, when the phenolic hydroxyls of naphthoquinone moiety were converted to ether, the activity was missing. […] So colony formation assay of this compound (Figure 4) was used to investigate the effect of it on cell proliferation in SGC-7901 cells. The experiment examined the ability for producing colonies after the cells were treated with the cell death agents[35]^,[36].

In assay [2] the test system is SMMC-7721. In words: MTT cell viability assay, SMMC-7721 cells. Conditions: Homo sapiens, 48 h, n = 3. It counts as cell-based. As for the experimental part:
(§2) MGC-803, SGC-7901, U87 and SMMC-7721 cell lines were cultured in DMEM supplemented with 10% foetal bovine serum, 100 IU/mL penicillin/streptomycin. The cells were incubated in an atmosphere containing 5% CO2 at 37 °C.
as §1

Assay [3] relates to U87. In words: MTT cell viability assay, U87 cells. Format: cell-based. Conditions: Homo sapiens, U-87 MG, 48 h, n = 3. How it is done:
as §2, §1

For assay [4], the system named is MGC-803. In words: MTT cell viability assay, MGC-803 cells. Conditions: Homo sapiens, MGC-803, 48 h, n = 3. Format: cell-based. As for the experimental part: as §2, §1
Assay [5] concerns SGC-7901. In words: MTT cell viability assay, SGC-7901 cells. Conditions: Homo sapiens, SGC-7901, 48 h, n = 3. It counts as cell-based, human. As for the experimental part:
as §2, §1

Assay [6] relates to L02. Kind of assay: MTT cell viability assay, L02 cells. Format: cell-based. Conditions: Homo sapiens, n = 3.

As for `CC(C)=CCC(OC(=O)CCC(=O)Nc1ccc(OC(F)(F)F)cc1)C1=CC(=O)c2c(O)ccc(O)c2C1=O` (stereo not drawn) [Compound 13, 1-(5,8-dihydroxy-1,4-dioxo-1,4-dihydronaphthalen-2-yl)-4-methylpent-3-en-1-yl-4-oxo-4-((4-(trifluoromethoxy)phenyl)amino)butanoate], the “anticancer activity (in words)” value in assay [1] is given as “good activity”. Moreover, the IC50 was determined as 16.9 ± 2.2 µM in assay [2]; 3.46 ± 0.31 µM in assay [3]; 10.2 ± 2.9 µM in assay [4]; 7.8 ± 3.7 µM in assay [5]; 15.8 ± 1.1 µM in assay [6].
Turning to `CC(C)=CCC(OC(=O)CCC(=O)N1CCCc2ccccc21)C1=CC(=O)c2c(O)ccc(O)c2C1=O` (stereo not drawn) [Compound 9, 1-(5,8-dihydroxy-1,4-dioxo-1,4-dihydronaphthalen-2-yl)-4-methylpent-3-en-1-yl-4-(3,4-dihydroquinolin-1(2H)-yl)-4-oxobutanoate], in assay [1], the “anticancer activity (in words)” value is “good activity”. Further, the IC50 is 12.3 ± 0.1 µM in assay [2]; 4.45 ± 0.66 µM in assay [3]; 3.1 ± 0.1 µM in assay [4]; 8.6 ± 2.5 µM in assay [5]; 12.1 ± 0.8 µM in assay [6].
